According to patent publication US20180369230A1, “TARGETED SELECTION OF PATIENTS FOR TREATMENT WITH SPECIFIC CORTISTATIN DERIVATIVES” (President and Fellows of Harvard College, priority 2015, published 2018):
Read-outs that look alike come from different tables or passages of the source.

What was measured:
MV4;11-mCLP leukemia = experiment: MV4;11 xenograft model; format: in vivo, mice
Protocol: The MV4;11 xenograft model was performed as previously described (Etchin, J. et al. Antileukemic activity of nuclear export inhibitors that spare normal hematopoietic cells. Leukemia 27, 66-74 (2013)). Two-million MV4;11-mCLP cells were injected into the tail vein of 7-week-old female non-obese diabetic-severe combined immuno-deficient (NOD-SCID)Il2rg^−/− (NSG) mice (The Jackson Laboratory) and tumour burden was assessed by bioluminescence imaging (BLI) using an IVIS Spectrum system (Caliper Life Sciences). Seven days after injection, leukaemia establishment was documented by BLI and mice were assigned to groups to achieve a similar mean BLI and treated intraperitoneally with vehicle (20% hydroxypropyl-β-cyclodextrin) or CA once daily for 15 days. After 30 days, blood counts were obtained (Hemavet 950 F, Drew Scientific) and spleen, femur and peripheral blood cells were collected and analysed by flow cytometry (LSR Fortessa, BD Biosciences) from three mice per group, having the highest, lowest and median BLI value. […]
(§1) Samples from all organs were then dissected and placed in nine cassettes per mouse. […] Survival was measured as the time from therapy initiation until moribund state. […]
as §1

MKPL-1 = experiment: Cellular proliferation assay; format: cell-based; conditions: MKPL-1 (RBM6-CSF1R), adult non-DS-AMKL; 10-day treatment; read-out: G150 after 10 days of treatment
Protocol: (§2) All suspension cells were plated (96-well) in triplicate at 5,000-30,000 cells per well for testing (n=3). Viable cell number was estimated after 3, 7 and 10 days by counting viable cells from one vehicle well, generating a cell dilution series, transferring […] per well in duplicate to a 384-well plate, and performing a linear regression to CellTiter-Glo (Promega) response (SPECTRAmax M3, Molecular Devices). Cells from all wells were also fourfold diluted in media and transferred in duplicate for CellTiter-Glo measurement. On days 3 and 7, an equal volume for all wells was split-back with fresh media and compound, such that the resulting cell density for the vehicle well matched the initial seeding density. For days 7 and 10, estimated cell number represents the split-adjusted theoretical cell number. HCT116 were plated (96-well) in triplicate at 250 cells per well. Cells were incubated in the presence of vehicle, 1 μM paclitaxel, or compound. On day 7, CellTiter-Blue (Promega) response was measured and values were normalized to vehicle (100% growth) and paclitaxel (0% growth). For growth assays with inhibitors, n=3 for each concentration with two independent experiments.

leukemia cell lines = experiment: Cellular proliferation assay; format: cell-based; conditions: K562 and HEL compared to MEG-01 and SET-2 (BCR-Abl or JAK2V617F)
Protocol: as §2

SET-2 = experiment: Cellular proliferation assay; format: cell-based
Protocol: as §2

GRANTA 519 = experiment: Cellular proliferation assay; format: cell-based; conditions: Mantle Cell Lymphoma
Protocol: as §2

ARH-77 = experiment: Cellular proliferation assay; format: cell-based; conditions: MM/PCL
Protocol: as §2

[1] = system: megakaryocytic cell lines; experiment: Cellular proliferation assay; format: cell-based; conditions: read-out: 50% maximal growth inhibitory concentrations (GI50s); 5 out of 5 megakaryocytic cell lines tested
Protocol: as §2

MEG-01 = experiment: Cellular proliferation assay; format: cell-based
Protocol: as §2

ALL-SIL = experiment: Cellular proliferation assay; format: cell-based; conditions: T-ALL, TLX1 overexpression
Protocol: as §2

HCT116 = experiment: Cellular proliferation assay; format: cell-based; conditions: Colorectal, β-catenin
Protocol: as §2

REH = experiment: Cellular proliferation assay; format: cell-based; conditions: pre B-ALL, ETV6-RUNX1
Protocol: as §2

MOLM-14 = experiment: Cellular proliferation assay; format: cell-based
Protocol: as §2

CMK-86 = experiment: Cellular proliferation assay; format: cell-based
Protocol: as §2

OCI-LY1 = experiment: Cellular proliferation assay; format: cell-based; conditions: DLBCL
Protocol: as §2

Jurkat = experiment: Cellular proliferation assay; format: cell-based; conditions: T-ALL
Protocol: as §2

MM1.S = experiment: Cellular proliferation assay; format: cell-based; conditions: MM
Protocol: as §2

UKE-1 = experiment: Cellular proliferation assay; format: cell-based; conditions: AML/MPN, JAK2V617F
Protocol: as §2

HEL = experiment: Cellular proliferation assay; format: cell-based
Protocol: as §2

MV4; 11 = experiment: Cellular proliferation assay; format: cell-based
Protocol: as §2

NB4 = experiment: Cellular proliferation assay; format: cell-based; conditions: AML/APL, PML-RARA
Protocol: as §2

Cortistatin A was tested, and the “leukemia cells in the lungs (haematoxylin and eosin staining)” value (MV4;11-mCLP leukemia; MV4;11 AML mice, Day 30, vs vehicle) was “fewer leukemia cells in the lungs”, the spleen weight (MV4;11-mCLP leukemia; NSG mice, disseminated MV4;11-mCLP leukemia, once daily IP for 15 days, 15 days after stopping treatment) was “prevents spleen weight increase” and the IC50 (MKPL-1) was 1 nM. The “difference in sensitivity, megakaryocytic vs erythroleukemia cell lines containing the same mutations” value (leukemia cell lines) was “more than 100 fold”, the IC50 (SET-2; SET-2 (JAK2V617F), 10-day treatment, read-out: G150 after 10 days of treatment) was 4 nM and the GI50 (SET-2; SET-2, AMkL/MPN, JAK2V617F) was 4 nM. For the same substance, the “proliferation, theoretical cell number over time” value (SET-2; SET-2, FIG. 4) was “inhibits the proliferation”, the GI50 (GRANTA 519) was 400 nM and the GI50 (ARH-77) was 16 nM. For the same substance, the IC50 [1] was less than 10 nM, the IC50 (MEG-01; MEG-01 (BCR-AB1, GAGA1s), adult non-DS-AMKL, 10-day treatment, read-out: G150 after 10 days of treatment) was 9 nM and the GI50 (MEG-01; MEG-01, CML/AMkL, BCR-ABL, GATA1s) was 9 nM. For the same substance, the GI50 (ALL-SIL) was 2 nM, the GI50 (HCT116) was greater than 1000 nM and the GI50 (REH) was 1 nM. The GI50 (MOLM-14; MOLM-14 (MLL-AF9), 10-day treatment, read-out: G150 after 10 days of treatment) was 5 nM, the GI50 (MOLM-14; MOLM-14, AML, MLL-AF9, read-out: GI50) was 5 nM and the IC50 (CMK-86; CMK-86 (GATA1s), pediatric DS-AMKL, 10-day treatment, read-out: G150 after 10 days of treatment) was 8 nM. For the same substance, the GI50 (CMK-86; CMK-86, AMkL, GATA1s) was 8 nM, the GI50 (OCI-LY1) was 37 nM and the GI50 (Jurkat) was 155 nM. For the same substance, the GI50 (MM1.S) was 5 nM, the GI50 (UKE-1) was 7 nM and the IC50 (HEL; HEL (JAK2V617F), erythroleukemia, 10-day treatment, read-out: G150 after 10 days of treatment) was greater than 1000 nM. It also gave a GI50 (HEL; HEL, AML/Erythroleukemia, JAK2V617F) greater than 1000 nM, an IC50 (MV4; 11; 11 (MLL-AF4), 10-day treatment, read-out: G150 after 10 days of treatment) of 6 nM and a GI50 (MV4; 11; 11, AML, MLL-AF4) of 6 nM. It also gave a GI50 (NB4) greater than 1000 nM.
